In US20250177359A1, “COMPOUNDS FOR USE IN THE TREATMENT OF CANCER AND INFLAMMATORY CONDITIONS” (priority 2022, published 2025):

Target: T1, PARP10 (Homo sapiens, UniProt Q53GL7)
T1 construct: made in house
T1 sequence (Q53GL7 1-1025): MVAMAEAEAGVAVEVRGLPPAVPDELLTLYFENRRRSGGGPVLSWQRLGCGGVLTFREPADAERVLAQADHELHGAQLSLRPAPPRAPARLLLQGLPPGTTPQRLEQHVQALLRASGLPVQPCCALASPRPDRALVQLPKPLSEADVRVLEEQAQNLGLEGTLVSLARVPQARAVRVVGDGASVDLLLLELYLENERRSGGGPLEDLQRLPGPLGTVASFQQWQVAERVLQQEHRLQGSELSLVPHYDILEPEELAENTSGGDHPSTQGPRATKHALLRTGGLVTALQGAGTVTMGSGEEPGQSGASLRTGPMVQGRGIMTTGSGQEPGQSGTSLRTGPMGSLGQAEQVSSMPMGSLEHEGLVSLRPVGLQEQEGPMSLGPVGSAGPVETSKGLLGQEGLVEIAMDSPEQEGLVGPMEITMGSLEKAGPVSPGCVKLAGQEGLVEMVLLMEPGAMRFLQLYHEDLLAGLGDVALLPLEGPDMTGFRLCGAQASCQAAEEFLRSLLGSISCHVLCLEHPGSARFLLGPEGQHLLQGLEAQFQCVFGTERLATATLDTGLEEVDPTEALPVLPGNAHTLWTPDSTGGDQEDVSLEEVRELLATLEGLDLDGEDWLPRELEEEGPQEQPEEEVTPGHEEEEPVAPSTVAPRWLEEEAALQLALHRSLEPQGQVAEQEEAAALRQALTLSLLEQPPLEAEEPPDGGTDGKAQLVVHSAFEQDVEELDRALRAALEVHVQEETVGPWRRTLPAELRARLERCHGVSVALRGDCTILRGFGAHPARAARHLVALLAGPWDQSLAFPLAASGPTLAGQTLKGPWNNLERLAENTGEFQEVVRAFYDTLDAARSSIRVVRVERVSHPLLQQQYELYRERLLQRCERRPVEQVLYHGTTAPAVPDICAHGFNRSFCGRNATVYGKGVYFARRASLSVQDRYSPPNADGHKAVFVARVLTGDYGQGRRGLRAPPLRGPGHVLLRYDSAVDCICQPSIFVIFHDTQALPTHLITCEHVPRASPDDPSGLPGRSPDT
Assay: Activity assay measuring NAD+ consumption, PARP10 (Tables 1-3)
Assay type: biochemical
Conditions: PARP10 IC50, Tables 1-3 assay

Structure (SMILES): Nc1nnc2sc3cc(O)ccc3n12 [Compound 109, 3-Amino[1,2,4]triazolo[3,4-b][1,3]benzothiazol-7-ol]
- IC50: 0.22 µM
